Each structure is given as a SMILES string.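 Grown in 96-well plates, cells were treated for 48 hours with each compound at five concentrations. Insufficient inhibition: endpoint recorded as highest concentration tested. Here, GI50 denotes the concentration required for 50% inhibition of growth. TGI marks complete inhibition of growth.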

Some test systems named below: ACHN renal; HCT-116 colon; SNB-19 CNS; NCI-H226 lung; K-562 leukemia; NCI/ADR-RES ovarian; HL-60(TB) leukemia; U251 CNS; UO-31 renal; CCRF-CEM leukemia.
Common to all, as to experiment: NCI tumour cell line growth inhibition, 48 h

`O=C(O)CCC(O)=C1S(=O)(=O)OCCOS1(=O)=O`: the TGI in the assay with ACHN renal, in the assay with HCT-116 colon, in the assay with SNB-19 CNS, in the assay with NCI-H226 lung, with K-562 leukemia and in the assay on NCI/ADR-RES ovarian was more than 100 µM each time. The TGI in the assay on HL-60(TB) leukemia, with U251 CNS and with UO-31 renal was more than 100 µM throughout.
With `CN(C)CCNC(=O)c1ccc2c(c1)oc1cc3ccccc3c(=O)n12`, the GI50 in the assay on ACHN renal was 12.5 µM; in the assay with HCT-116 colon it was 16 µM; in the assay on SNB-19 CNS, 25.9 µM; in the assay with K-562 leukemia, 35.4 µM; in the assay with NCI/ADR-RES ovarian, 18.6 µM; in the assay on HL-60(TB) leukemia, 23.8 µM. Moreover, the results for the GI50 in the assay with U251 CNS and in the assay on UO-31 renal were 15.8 µM and 15.1 µM, respectively. The TGI was 26 µM in the assay on ACHN renal; 29.4 µM in the assay with HCT-116 colon; 48.7 µM with SNB-19 CNS; more than 100 µM in the assay on K-562 leukemia; 34.5 µM in the assay with NCI/ADR-RES ovarian; 87.9 µM in the assay with HL-60(TB) leukemia. Further, the TGI in the assay with U251 CNS was determined as 30.6 µM; in the assay on UO-31 renal, 30.8 µM.
As to `Cc1nc(-n2nc(-c3ccccc3)cc2-c2ccccc2)sc1C(=O)CC(=O)C(=O)Nc1ccc(Cl)c(Cl)c1`, the TGI in the assay on CCRF-CEM leukemia, in the assay with ACHN renal, in the assay on HCT-116 colon, in the assay with SNB-19 CNS, in the assay with NCI-H226 lung and with K-562 leukemia was more than 100 µM in each case. Also, the TGI in the assay on HL-60(TB) leukemia, in the assay with U251 CNS and with UO-31 renal was more than 100 µM throughout.
As for `O=C1OC(C(O)CO)C(C(O)CO)OC1=O` (stereo not drawn), the TGI in the assay with CCRF-CEM leukemia, with ACHN renal, with SNB-19 CNS, in the assay on NCI-H226 lung, in the assay on K-562 leukemia and with NCI/ADR-RES ovarian was more than 10 µM each time. In addition, the TGI in the assay with HL-60(TB) leukemia, in the assay on U251 CNS and in the assay on UO-31 renal was more than 10 µM in each case.
For `O=[N+]([O-])c1ccc(Sc2cccc[n+]2[O-])c2nonc12`, the GI50 in the assay on CCRF-CEM leukemia is 1.42 µM; in the assay on ACHN renal it was 3.67 µM; in the assay on HCT-116 colon it was 1.4 µM; in the assay with SNB-19 CNS, 17.1 µM; in the assay with NCI-H226 lung, 21 µM; in the assay with K-562 leukemia it was 2.1 µM. Also, the GI50 with NCI/ADR-RES ovarian is 5.73 µM; in the assay on U251 CNS, 3.56 µM; in the assay on UO-31 renal, 5.24 µM. The TGI with ACHN renal was 14.2 µM; in the assay with HCT-116 colon, 12.5 µM; with SNB-19 CNS, more than 100 µM; with NCI-H226 lung, more than 65.3 µM; in the assay with K-562 leukemia, more than 100 µM; with NCI/ADR-RES ovarian, more than 52.7 µM. In addition, the values for the TGI with U251 CNS and in the assay on UO-31 renal were 17.6 µM and 17.4 µM, respectively.
`CC1=CC(=O)NP(=O)(Oc2ccc(Cl)cc2)N1` (stereo not drawn): the TGI in the assay on CCRF-CEM leukemia, in the assay with ACHN renal, in the assay on HCT-116 colon, with SNB-19 CNS, with NCI-H226 lung and in the assay with K-562 leukemia was more than 100 µM throughout. In addition, the TGI with HL-60(TB) leukemia, in the assay with U251 CNS and in the assay with UO-31 renal was more than 100 µM throughout.
As for `COc1ccc(-c2nc(NC(=O)CS(=O)(=O)c3ccc(F)cc3)sc2C)cc1`, the GI50 in the assay on ACHN renal was 30 µM; in the assay with HCT-116 colon, 17.5 µM; with SNB-19 CNS, 33.4 µM; with NCI-H226 lung, 23.8 µM; in the assay with K-562 leukemia, 3.94 µM; with NCI/ADR-RES ovarian it was 17.4 µM. The figures for the GI50 with HL-60(TB) leukemia, in the assay with U251 CNS and in the assay on UO-31 renal were 16.5 µM, 19.2 µM and 18.9 µM, respectively. The TGI was more than 100 µM in the assay on ACHN renal; 38.7 µM with HCT-116 colon; more than 100 µM with SNB-19 CNS; 87.8 µM in the assay on NCI-H226 lung; more than 100 µM in the assay on K-562 leukemia; more than 100 µM in the assay on NCI/ADR-RES ovarian. For the same molecule, the figures for the TGI in the assay on HL-60(TB) leukemia, with U251 CNS and in the assay with UO-31 renal were 66 µM, 51.3 µM and 92 µM, respectively.
For the molecule `CC(C)(C)C1=CC(=N/N=c2\scc(-c3ccccc3)n2Cc2ccccc2)C=C(C(C)(C)C)C1=O`, the TGI with CCRF-CEM leukemia, in the assay on ACHN renal, in the assay with HCT-116 colon, with SNB-19 CNS, in the assay on NCI-H226 lung and with K-562 leukemia was more than 100 µM throughout. In addition, the TGI in the assay with HL-60(TB) leukemia, in the assay with U251 CNS and in the assay on UO-31 renal was more than 100 µM in each case.
With `COc1ccc(-c2cc(=O)c3c(O)c(O)c(OC)cc3o2)cc1O`, the TGI in the assay with CCRF-CEM leukemia, in the assay on ACHN renal, with HCT-116 colon, in the assay on SNB-19 CNS, with NCI-H226 lung and with K-562 leukemia was more than 100 µM each time. Also, the TGI in the assay on HL-60(TB) leukemia, in the assay on U251 CNS and in the assay on UO-31 renal was more than 100 µM each time.
With `Cc1cccc(NC(=O)c2c(N)[n+]([O-])c3ccccc3[n+]2[O-])c1`, the TGI in the assay with CCRF-CEM leukemia was more than 100 µM; with ACHN renal, 29.9 µM; in the assay with HCT-116 colon, 20.3 µM; in the assay with SNB-19 CNS it was 29.3 µM; in the assay on NCI-H226 lung, 27 µM; in the assay on K-562 leukemia it was more than 100 µM. Besides, the TGI in the assay on HL-60(TB) leukemia came to 56.7 µM; in the assay with U251 CNS, 3.65 µM; with UO-31 renal, 32.6 µM.
For `CC1(Cl)C(=O)NC(=O)N([C@H]2C[C@H](O)[C@@H](CO)O2)C1N=[N+]=[N-]` (stereo partly drawn), the TGI in the assay on CCRF-CEM leukemia, in the assay with ACHN renal, with HCT-116 colon, in the assay with SNB-19 CNS, in the assay on NCI-H226 lung and in the assay with K-562 leukemia was more than 100 µM throughout. Further, the TGI in the assay with HL-60(TB) leukemia, in the assay with U251 CNS and in the assay on UO-31 renal was more than 100 µM in each case.

Values taken from PubChem BioAssay (NCI).
